Reference: the NIST ThermoML archive (doi:10.1016/j.jct.2014.11.007)
Numbers after ± are expanded uncertainties.

How the values were obtained:
[1] = mn = molality of the nth substance listed, in mol/kg; settings: 100 kPa, Liquid; for speed of sound: Frequency=3 MHz, Sing-around technique in a fixed-path interferometer; for mass density: Vibrating tube method
[2] = 100 kPa, Liquid, Vibrating tube method

Row | SMILES | speed of sound ([1]; 293.15 K, m1 = 0.01) [m/s] | speed of sound ([1]; 293.15 K, m1 = 0.03) [m/s] | speed of sound ([1]; 293.15 K, m1 = 0.05) [m/s] | mass density ([1]; 293.15 K, m1 = 0.03) [kg/m3] | mass density ([1]; 293.15 K, m1 = 0.05) [kg/m3] | speed of sound ([1]; 298.15 K, m1 = 0.01) [m/s] | speed of sound ([1]; 298.15 K, m1 = 0.03) [m/s] | speed of sound ([1]; 298.15 K, m1 = 0.05) [m/s] | mass density ([1]; 298.15 K, m1 = 0.01) [kg/m3] | mass density ([1]; 298.15 K, m1 = 0.03) [kg/m3] | mass density ([1]; 298.15 K, m1 = 0.05) [kg/m3] | speed of sound ([1]; 303.15 K, m1 = 0.01) [m/s] | speed of sound ([1]; 303.15 K, m1 = 0.03) [m/s] | speed of sound ([1]; 303.15 K, m1 = 0.05) [m/s] | mass density ([1]; 303.15 K, m1 = 0.03) [kg/m3] | mass density ([1]; 303.15 K, m1 = 0.05) [kg/m3] | speed of sound ([1]; 308.15 K, m1 = 0.01) [m/s] | speed of sound ([1]; 308.15 K, m1 = 0.03) [m/s] | speed of sound ([1]; 308.15 K, m1 = 0.05) [m/s] | mass density ([1]; 308.15 K, m1 = 0.03) [kg/m3] | other results
1 | NCC(=O)O [2-aminoacetic acid] + O | 1483.7 ± 1.5 | 1484.5 ± 1.5 | 1485.7 ± 1.5 | 999.313 ± 0.2 | 999.93 ± 0.2 | 1497.8 ± 1.5 | 1498.5 ± 1.5 | 1499.6 ± 1.5 | 997.478 ± 0.2 | 998.145 ± 0.2 | 998.761 ± 0.2 | 1510.2 ± 1.5 | 1510.9 ± 1.5 | 1511.9 ± 1.5 | 996.744 ± 0.2 | 997.353 ± 0.2 | 1520.8 ± 1.5 | 1521.5 ± 1.5 | 1522.5 ± 1.5 | 995.118 ± 0.2 | speed of sound ([1]; 313.15 K, m1 = 0.01): 1529.8 ± 1.5 m/s; speed of sound ([1]; 313.15 K, m1 = 0.03): 1530.5 ± 1.5 m/s; speed of sound ([1]; 313.15 K, m1 = 0.05): 1531.5 ± 1.5 m/s; mass density ([1]; 313.15 K, m1 = 0.03): 993.306 ± 0.2 kg/m3; mass density ([1]; 313.15 K, m1 = 0.05): 993.898 ± 0.2 kg/m3
2 | O=C(O)[C@@H]1CCCN1 [L-proline] + O | 1483.8 ± 1.6 | 1485.8 ± 1.6 | 1487.4 ± 1.6 | 999.275 ± 0.26 | 999.919 ± 0.26 | 1497.8 ± 1.6 | 1499.8 ± 1.6 | 1501 ± 1.6 | 997.474 ± 0.26 | 998.109 ± 0.26 | 998.747 ± 0.26 | 1510.1 ± 1.6 | 1511.8 ± 1.6 | 1512.9 ± 1.6 | 996.709 ± 0.26 | 997.338 ± 0.26 | 1520.7 ± 1.6 | 1522.4 ± 1.6 | 1523.5 ± 1.6 | 995.083 ± 0.26 | mass density ([1]; 293.15 K, m1 = 0.01): 998.631 ± 0.26 kg/m3; mass density ([1]; 303.15 K, m1 = 0.01): 996.082 ± 0.26 kg/m3; mass density ([1]; 308.15 K, m1 = 0.01): 994.462 ± 0.26 kg/m3; mass density ([1]; 308.15 K, m1 = 0.05): 995.708 ± 0.26 kg/m3; speed of sound ([1]; 313.15 K, m1 = 0.01): 1529.8 ± 1.6 m/s; speed of sound ([1]; 313.15 K, m1 = 0.03): 1531.4 ± 1.6 m/s; speed of sound ([1]; 313.15 K, m1 = 0.05): 1532.3 ± 1.6 m/s; mass density ([1]; 313.15 K, m1 = 0.01): 992.639 ± 0.26 kg/m3; mass density ([1]; 313.15 K, m1 = 0.03): 993.259 ± 0.26 kg/m3; mass density ([1]; 313.15 K, m1 = 0.05): 993.88 ± 0.26 kg/m3
3 | O [water] | – | – | – | – | – | – | – | – | – | – | – | – | – | – | – | – | – | – | – | – | mass density ([2]; 293.15 K): 998.272 ± 0.2 kg/m3; mass density ([2]; 308.15 K): 994.108 ± 0.2 kg/m3; mass density ([2]; 313.15 K): 992.29 ± 0.2 kg/m3
